Reference: publication PMC7318243, “Computationally Empowered Workflow Identifies Novel Covalent Allosteric Binders for KRAS^G12C” (Chemmedchem, 2020)

Tests used:
KRAS^WT = molecular target: T1, KRAS^WT (Homo sapiens, UniProt P01116); assay: Biochemical assay: KRAS^WT activation by SOS1CAT (HTRF, fluorescent GTP loading); settings: 180 min pre-incubation with KRAS before addition of SOS1
T1 construct: The proteins KRASWT (aa 1–169, wild type), SOS1CAT (aa 564–); made in house
Description: One of the most synthetically accessible compounds, 1,6‐naphthyridin‐5(6H)‐one (1), was prepared (Table 1; Scheme S1). Structurally close to 1, isoquinolin‐1(2H)‐one 2 derivatives were also considered for the exploration of structure‐activity relationships (SAR). To measure the proportion of inhibitor reacting with Cys12 of the KRAS^G12C mutant, the bound/unbound protein ratio was quantified by mass spectrometry (MS). Then, the inhibition potency of these compounds towards KRAS^G12C was evaluated in biochemical assays measuring the activation of GDP‐bound KRAS^G12C or KRAS^WT by SOS1.19 […]
3.3 Biochemical activity assays
Measurement of (i) KRASG12C activation by SOS1CAT and (ii) wild-type KRAS activation by SOS1CAT was performed following the previously described protocol, [19] with a pre-incubation time of the test compound with KRAS proteins extended to 180 min before addi tion of SOS1.
This assay quantifies SOS1 CAT mediated loading of KRAS G12C–GDP with a fluorescent GTP analogue. Detection of successful loading was achieved by measuring resonance energy transfer from anti-GST-terbium (FRET donor) bound to GST -KRASG12C to the loaded fluorescent GTP analogue (FRET acceptor). The fluorescent GTP analogue EDA –GTP–DY-647P1 [2'/3'-O-(2-aminoethyl-carbamoyl)guanosine-5'-triphosphate labelled with DY-647P1 (Dyomics GmbH, Germany)] was synthesized by Jena Bioscience (Germany) a nd supplied as a 1 mM aqueous solution. A KRASG12C working solution was prepared in assay buffer [10 mM HEPES pH 7.4 (AppliChem), 150 mM NaCl (Sigma), 5 mM MgCl2 (Sigma), 1 mM DTT (Thermo Fisher), 0.05% BSA Fraction V pH 7.0 (ICN Biomedicals), 0.0025% (v/v) Igepal (Sigma)] containing 100 nM GST-KRASG12C and 2 nM anti-GST-terbium (Cisbio, France). A SOS1 CAT working solution was prepared in an assay buffer containing 20 nM SOS1CAT and 200 nM EDA–GTP–DY-647P1. An inhibitor control solution was prepared in an assay buffer containing 200 nM EDA–GTP–DY-647P1 without […]
SOS1CAT. All steps of the assay were performed at 20 °C. A volume of 2.5 µL of the KRASG12C working solution was added to all wells of the test plate using a Multidrop dispenser (Thermo LabSystems). After 180 min, 2.5 µL of the SOS1CAT working solution was added to all wells, except for the inhibitor control solution wells. After 30 min incubation, HTRF was measured.
In the KRASWT activation by SOS1cat assay, human SOS1CAT mediated loading of GST-KRASWT– GDP was quantified with a fluorescent GTP analogue. The assay was performed as described above for the KRASG12C activation. […]
(§1) SYNAPT G2-S quadrupole time-of-flight mass spectrometer connected to a Waters nanoAcquity UPLC system. Samples were loaded on a 2.1 x 5 mm mass prep C4 guard column (Waters) and desalted with a short grad ient (3 min) of increasing concentrations of acetonitrile at a flow rate of 100 µL/min. Spectra were analyzed by using MassLynx v4.1 software and deconvoluted with the MaxEnt1 algorithm. Percent of conversion was determined by the ratio of signal intensiti es of apo-KRAS and KRAS + inhibitor.

KRAS^G12C = molecular target: T2, KRAS^G12C (Homo sapiens, UniProt P01116, C118S/C51S/C80L/G12C); assay: Determination of kinact and KI by LC-MS occupancy over time; assay type: binding; settings: for k inact (maximum potential rate of KRAS^G12C inactivation) / Ki: 10 µM KRAS^G12C, 10-100 µM inhibitor, 0-180 min; for Ki: read-out: K I (binding constant of the reversible binding event)
T2 construct: made in house
T2 sequence (P01116 1-169 isoform P01116-2 G12C/C51S/C80L/C118S): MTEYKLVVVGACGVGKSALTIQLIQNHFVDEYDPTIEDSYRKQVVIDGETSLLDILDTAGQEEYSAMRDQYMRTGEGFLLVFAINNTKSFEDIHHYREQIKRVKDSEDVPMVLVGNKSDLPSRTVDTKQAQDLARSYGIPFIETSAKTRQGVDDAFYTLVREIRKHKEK
Description: 3.4 Covalent binding assay by mass spectrometry
The percentage of covalent adduct formation at KRAS G12C was determined by intact mass determination. To this end, 25 µM recombinant KRAS mutant (G12C , C51S, C80L, C118S) was incubated with 25 µM compound (1% v/v DMSO final concentration) in 50 mM Tris, pH 8.0, 50 mM NaCl at room temperature for 2 h. Reaction mixture (20 µL) was acidified by addi tion of 4% v/v TFA (4 µL). LC-MS analysis was performed using a Waters SYNAPT G2 -S quadrupole time -of-flight mass spectrometer connected to a Waters nanoA CQUITY UPLC system. Samples were loaded onto a 2.1 × 5 mm MassPrep C4 guard column (Waters) and desalted with a short gradient (3 min) of increasing concentration of acetonitrile at a flow rate of 100 µL/min. Spectra were analyzed by using MassLynx v4.1 software and deconvoluted with the MaxEnt1 algorithm. Percent conversion was determined by the ratio of signal intensities of […] and KRASG12C + inhibitor. […]
3.6 Determination of k inact and KI
The percentage of covalent adduct formation at KRASG12C was determined for compounds 1, 2 and 13 by intact mass determination. To this end, 25 µM of the same recombinant KRAS mutant as for the covalent binding assay (G12C, C51S, C80L, C118S) were incubated with 25 µM of compound (1% v/v final DMSO concentration) in 50 mM Tris, pH8, 50 mM NaCl at room temperature for 2 h. The reaction was acidified by adding 4 µL of 4% v/v TFA to 20 µL reaction […]
as §1, with “Liquid chromatography-mass spectrometry (LC-MS) analysis was performed using a Waters SYNAPT” for “SYNAPT”
The kinact / KI ratio was determined by measuring the total occupancy (% conversion) over time at different inhibitor concentrations. In detail, 10 µM KRASG12C were incubated in the same reaction buffer as above with 10 µM, 25 µM, 50 µM or 100 µM of inhibitor at different reaction times (0, 2, 20, 60 and 180 min), the reaction was quenched by adding 2 µL of 4% v/v TFA to 10 µL reaction volume and subsequently measured by LC -MS as described above. The observed occupancy percentage over time at a given inhibitor concentration was fit to the following equation using […]
% conversion = vi [1 − exp(−k ∗ t)]
The obtained kobs values were then plotted as a function of inhibitor concentration and fit to the […]
to yield the kinact and KI.[26]

T1 sequence (P01116 1-169 isoform P01116-2): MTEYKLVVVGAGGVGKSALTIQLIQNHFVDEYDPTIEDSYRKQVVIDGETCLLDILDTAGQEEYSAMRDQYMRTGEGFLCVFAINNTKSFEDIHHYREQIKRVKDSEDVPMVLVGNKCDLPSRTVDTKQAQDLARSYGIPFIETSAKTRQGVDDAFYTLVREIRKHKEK

| SMILES | IC50 (KRAS^WT) | k inact/K I (KRAS^G12C) | k inact (maximum potential rate of KRAS^G12C inactivation) (KRAS^G12C) | Ki (KRAS^G12C) |
| --- | --- | --- | --- | --- |
| C=CC(=O)N1CCC(c2cc3ncc(-c4c(O)cccc4F)cc3c(=O)[nH]2)C1 (stereo not drawn) [Compound 1, 3-(2-Fluoro-6-hydroxyphenyl)-7-[1-(prop-2-enoyl)pyrrolidin-3-yl]-1,6-naphthyridin-5(6H)-one] | > 20 µM | 26.72 M⁻¹ s⁻¹ | 0.00105 s⁻¹ | 39.3 µM |
| C=CC(=O)N1CCC(c2cc3ccc(-c4c(O)cccc4F)cc3c(=O)[nH]2)C1 (stereo not drawn) [Compound 2, 7-(2-Fluoro-6-hydroxyphenyl)-3-[1-(prop-2-enoyl)pyrrolidin-3-yl]isoquinolin-1(2H)-one] | > 20 µM | 55.05 M⁻¹ s⁻¹ | 0.00024 s⁻¹ | 4.4 µM |
| C=CC(=O)N1CCC(c2cc3cnc(-c4c(O)cccc4F)cc3c(=O)[nH]2)C1 (stereo not drawn) [Compound 13, 7-(2-Fluoro-6-hydroxyphenyl)-3-[1-(prop-2-enoyl)pyrrolidin-3-yl]-2,6-naphthyridin-1(2H)-one] | > 20 µM | 49.38 M⁻¹ s⁻¹ | 0.00159 s⁻¹ | 32.2 µM |
